Patent publication US12448369B2 (Edgewise Therapeutics, Inc., priority 2023, dated 2025)
Marks after values point to notes of the source that are not given here.

Key:
[1] = test system: Rabbit Psoas myofibrils (skeletal myosin ATPase); experiment: Myofibril ATPase assay, rabbit psoas (skeletal) myofibrils; assay type: biochemical; settings: rabbit psoas myofibrils
Procedure, shortened: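 Myofibrils homogenized in Triton X-100 buffer were assayed in pH 7.0 PIPES with defined Ca2+/EGTA. Myosin-driven ADP formation was coupled to NADH oxidation, with depletion monitored at 340 nm. Each value is the concentration that lowers activity to 75% of vehicle or, for activators, raises it to 125%.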

[2] = test system: Porcine atria myofibrils (atrial myosin ATPase); experiment: Myofibril ATPase assay, porcine atria myofibrils; assay type: biochemical; settings: porcine atria myofibrils
Procedure, shortened: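 Values are Y75 (concentration cutting ATPase activity to 75% of vehicle) or Y125 (raising it to 125%), taken from 4-parameter logistic fits. Rates come from NADH disappearance at 340 nm in a PK/LDH-coupled assay with porcine atria myofibrils.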

[3] = target: T1, Porcine ventricle myofibrils (ventricular myosin ATPase) (Sus scrofa, UniProt P79293); experiment: Myofibril ATPase assay, porcine ventricle myofibrils; assay type: biochemical, porcine (Yucatan minipigs); settings: porcine ventricle myofibrils
T1 construct: Myofibrils from porcine cardiac muscle was isolated from the left ventricle of Yucatan minipigs; tissue Exemplar Genetics; host or cells: left ventricle of Yucatan minipigs, myofibrils prepared in house
Procedure, shortened: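 ATPase activity of porcine left-ventricle myofibrils (Yucatan minipig) was followed through PK-LDH coupling as NADH loss at 340 nm, read every 1.5-2 min for 75 min. Slopes were normalised to vehicle wells and fitted to a 4-parameter logistic model. Values are Y75, the concentration giving a 25% drop in activity, or Y125 for activators.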

[4] = Y75 value (75% activity relative to no compound)
[5] = ‡ Y125 value, not a Y75 value (125% activity relative to no compound)

T1 sequence (P79293 whole entry): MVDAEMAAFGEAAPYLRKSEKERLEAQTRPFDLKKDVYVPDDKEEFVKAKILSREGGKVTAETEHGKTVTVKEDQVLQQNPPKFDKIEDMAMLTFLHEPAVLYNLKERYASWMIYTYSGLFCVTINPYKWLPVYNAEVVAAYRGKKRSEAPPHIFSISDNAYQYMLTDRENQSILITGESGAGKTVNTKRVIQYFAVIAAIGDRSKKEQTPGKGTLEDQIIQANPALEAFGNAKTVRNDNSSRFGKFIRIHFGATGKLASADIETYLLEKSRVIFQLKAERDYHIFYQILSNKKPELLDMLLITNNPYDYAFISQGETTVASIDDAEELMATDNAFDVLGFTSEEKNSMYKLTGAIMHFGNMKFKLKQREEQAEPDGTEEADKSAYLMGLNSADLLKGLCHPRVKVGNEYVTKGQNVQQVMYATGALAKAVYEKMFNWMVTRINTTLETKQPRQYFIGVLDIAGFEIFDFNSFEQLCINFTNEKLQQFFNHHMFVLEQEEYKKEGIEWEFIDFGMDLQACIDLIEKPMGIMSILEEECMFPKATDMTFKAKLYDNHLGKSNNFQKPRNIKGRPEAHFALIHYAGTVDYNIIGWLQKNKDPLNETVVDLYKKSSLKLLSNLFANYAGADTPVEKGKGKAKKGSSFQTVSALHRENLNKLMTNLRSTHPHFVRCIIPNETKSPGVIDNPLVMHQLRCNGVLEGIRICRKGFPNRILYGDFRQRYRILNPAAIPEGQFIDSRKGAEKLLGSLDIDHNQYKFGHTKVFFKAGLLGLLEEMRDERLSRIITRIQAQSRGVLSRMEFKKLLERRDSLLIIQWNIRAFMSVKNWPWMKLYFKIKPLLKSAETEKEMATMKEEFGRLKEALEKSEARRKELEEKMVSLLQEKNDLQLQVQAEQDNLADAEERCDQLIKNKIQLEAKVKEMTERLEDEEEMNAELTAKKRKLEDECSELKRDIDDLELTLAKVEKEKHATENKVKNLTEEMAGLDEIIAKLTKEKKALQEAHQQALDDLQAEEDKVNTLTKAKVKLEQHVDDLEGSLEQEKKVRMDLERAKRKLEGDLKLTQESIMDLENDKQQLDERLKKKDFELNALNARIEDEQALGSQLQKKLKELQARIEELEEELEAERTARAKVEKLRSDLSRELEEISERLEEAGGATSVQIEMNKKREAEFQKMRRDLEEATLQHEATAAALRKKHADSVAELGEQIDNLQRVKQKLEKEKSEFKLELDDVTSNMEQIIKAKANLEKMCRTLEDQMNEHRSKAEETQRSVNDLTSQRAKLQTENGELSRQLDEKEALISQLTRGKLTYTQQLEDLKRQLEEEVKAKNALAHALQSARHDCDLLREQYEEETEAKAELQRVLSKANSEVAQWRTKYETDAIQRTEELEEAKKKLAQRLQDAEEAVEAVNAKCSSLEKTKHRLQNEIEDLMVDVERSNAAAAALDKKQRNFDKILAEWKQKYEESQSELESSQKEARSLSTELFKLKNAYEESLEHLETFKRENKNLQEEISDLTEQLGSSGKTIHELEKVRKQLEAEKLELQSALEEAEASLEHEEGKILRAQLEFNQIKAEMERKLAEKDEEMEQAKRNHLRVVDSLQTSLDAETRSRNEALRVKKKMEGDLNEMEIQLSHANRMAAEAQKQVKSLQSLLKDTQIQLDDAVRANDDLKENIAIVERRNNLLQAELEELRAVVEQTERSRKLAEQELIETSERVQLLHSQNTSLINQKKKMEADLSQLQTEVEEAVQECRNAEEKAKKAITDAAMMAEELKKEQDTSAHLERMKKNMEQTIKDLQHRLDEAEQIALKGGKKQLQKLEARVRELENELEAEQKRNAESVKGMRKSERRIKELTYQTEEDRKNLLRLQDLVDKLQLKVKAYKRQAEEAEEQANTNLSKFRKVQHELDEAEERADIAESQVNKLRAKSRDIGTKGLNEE

SMILES | Skeletal EC25 ([1]; Y75 value (no ‡ mark)) [µM] | Atrial EC25 ([2]; Y75 value (no ‡ mark)) [µM] | Ventricular EC25 ([3]; Y75 value (no ‡ mark)) [µM] | Skeletal EC25 ([1]; Y75 value) [µM] | Atrial EC25 [2, 4] [µM] | Ventricular EC25 ([3]; Y75 value) [µM] | also measured
Cc1c(CC(=O)N[C@@H](C)c2ncc(C#N)cc2F)c(=O)[nH]c2ccc(F)c(Cl)c12 (single isomer, unassigned) [compound 2052] | 0.08 | 0.04 | 0.09 |  |  |  | 
Cc1nc(C#N)ncc1[C@H](C)NC(=O)Cc1c(C)c2c(F)c(F)ccc2[nH]c1=O [compound 1132] | 0.02 | 0.10 | 0.05 |  |  |  | 
Cc1nccc2[nH]c(=O)c(CC(=O)N[C@@H](C)c3c(F)cc(F)cc3F)c(C)c12 [compound 500] |  |  |  | 2.3 | 43 | 70 | 
C[C@@H](NC(=O)Cc1c(C2CC2)c2cc(F)ccc2[nH]c1=O)c1ccc(C#N)cc1F [compound 73] | 0.02 | 100.00 | 100.00 |  |  |  | 
Cc1nc(C#N)ncc1[C@H](C)NC(=O)Cc1cc2cc(F)c(F)cc2[nH]c1=O [compound 1097] | 0.15 | 1.11 | 1.56 |  |  |  | 
Cc1c(F)ccc2[nH]c(=O)c(C(F)(F)C(=O)N[C@@H](C)c3ncc(C#N)cn3)c(C)c12 (single isomer, unassigned) [compound 4832] | 0.17 | 0.12 | 0.58 |  |  |  | 
C[C@H](NC(=O)Cc1c(C2CC2)c2cc(F)ccc2[nH]c1=O)c1ccc(C#N)nn1 (single isomer, unassigned) [compound 2054] | 0.15 | 0.23 | 3.72 |  |  |  | 
CC(NC(=O)C(F)(F)c1cc2cc(F)ccc2[nH]c1=O)c1cc(C#N)ccn1 (single isomer, unassigned) [Compound 2573] | 100.00 | 100.00 | 100.00 |  |  |  | 
Cc1nccc2[nH]c(=O)c([C@@H](C)C(=O)N[C@H](C)c3ccc(C#N)cc3F)c(C)c12 (single isomer, unassigned) [compound 183] |  |  |  | 0.75 | 0.33 | 6.37 | 
Cc1nccc2[nH]c(=O)c(CC(=O)N[C@@H](C)c3cccc(O)c3)c(C)c12 (single isomer, unassigned) [compound 331] |  |  |  | 100.00 | 100.00 | 100.00 | 
Cc1c(CC(=O)N[C@@H](C)c2ccc(F)cc2F)c(=O)[nH]c2ccnc(N3CCCC3)c12 [compound 346] |  |  |  | 2.37 | 100.00 | 100.00 | 
C[C@H](NC(=O)C1(c2cc3c(F)c(F)ccc3[nH]c2=O)CC1)c1ccc(C#N)cn1 (single isomer, unassigned) [compound 4810] | 100.00 | 1.90 | 100.00 |  |  |  | 
Cc1c(C2(C(=O)N[C@@H](C)c3cc(C#N)ccn3)CC2)c(=O)[nH]c2ccc(F)cc12 (single isomer, unassigned) [compound 2578] |  |  |  |  |  |  | Skeletal EC25 [1, 5]: 100.00‡ μM; Atrial EC25 [2, 5]: 100.00‡ μM; Ventricular EC25 [3, 5]: 100.00‡ μM
Cc1nc(C#N)cnc1[C@H](C)NC(=O)Cc1cc2cc(F)c(F)cc2[nH]c1=O (single isomer, unassigned) [compound 6] | 0.30 | 0.81 | 0.95 |  |  |  | 
Cc1c(CC(=O)N[C@H](CO)c2ccc(C#N)cc2F)c(=O)[nH]c2ccc(C#N)nc12 [compound 220] |  |  |  | 100.00 | 100.00 | 100.00 | 
C[C@@H](NC(=O)Cc1cc2c(F)cccc2[nH]c1=O)c1ccc(C#N)cn1 [compound 47] | 0.43 | 4.48 | 4.80 |  |  |  | 

SMILES | Skeletal EC25 ([1]; Y75 value (no ‡ mark)) [µM] | Atrial EC25 ([2]; Y75 value (no ‡ mark)) [µM] | Ventricular EC25 ([3]; Y75 value (no ‡ mark)) [µM] | Skeletal EC25 ([1]; Y75 value) [µM] | Atrial EC25 [2, 4] [µM] | Ventricular EC25 ([3]; Y75 value) [µM] | also measured
C[C@@H](NC(=O)Cc1cc2cc(F)ccc2[nH]c1=O)c1ccc(C#N)cn1 [compound 1125] | 100.00 | 18.28 | 100.00 |  |  |  | 
Cc1c(CC(=O)N[C@H](CO)c2ccc(C#N)cc2F)c(=O)[nH]c2ccc(C(F)(F)F)nc12 [compound 218] |  |  |  | 14.86 | 100.00 | 100.00 | 
Cc1c(CC(=O)N[C@H](C)c2cnc(C#N)nc2)c(=O)[nH]c2ccc(F)cc12 [compound 1100] | 0.53 | 0.77 | 2.27 |  |  |  | 
C[C@@H](NC(=O)Cc1cc2cc(F)c(F)cc2[nH]c1=O)c1ncc(C#N)cc1F (single isomer, unassigned) [compound 3] | 2.33 | 3.40 | 0.31 |  |  |  | 
Cc1c(CC(=O)N[C@H](CO)c2ccc(F)cc2F)c(=O)[nH]c2ccnc(C(F)(F)F)c12 [compound 231] |  |  |  | 100.00 | 100.00 | 100.00 | 
Cc1c(CC(=O)N[C@H](C)c2ccc(C#N)nn2)c(=O)[nH]c2cccc(C#N)c12 [compound 1038] | 0.34 | 0.42 | 2.7 |  |  |  | 
Cc1c(C(F)(F)C(=O)N[C@H](C)c2ncc(C#N)cc2F)c(=O)[nH]c2ccnc(C#N)c12 (single isomer, unassigned) [compound 3510] |  |  |  | 0.16 | 0.44 | 1.30 | 
C[C@H](NC(=O)Cc1c(C(F)(F)F)c2c(C3CC3)nccc2[nH]c1=O)c1ccc(C#N)cn1 (single isomer, unassigned) [compound 3006] |  |  |  | 100.00 |  | 100.00 | Atrial EC25 (Y125 value, marked ‡) ([2]; Y125 value (125% activity), not a Y75 value): 77.22‡ μM
O=C(Cc1cc2cc(F)ccc2[nH]c1=O)N1CC[C@@H]2C[C@H]1c1ccccc12 (single isomer, unassigned) [compound 4503] | 1.29 | 11.52 | 2.98 |  |  |  | 
CCc1nccc2[nH]c(=O)c(CC(=O)N[C@@H](C)c3ccc(F)cc3F)cc12 [compound 437] |  |  |  | 1.28 | 91.43 | 100.00 | 
Cc1c(F)ccc2[nH]c(=O)c(C(F)(F)C(=O)N[C@@H](C)c3ncc(C#N)cc3F)c(C#N)c12 (single isomer, unassigned) [compound 2520] | 0.07 | 0.14 | 0.21 |  |  |  | 
Cc1cc(C#N)nnc1[C@@H](C)NC(=O)Cc1c(C)c2c(C)nccc2[nH]c1=O [compound 489] |  |  |  | 0.26 | 1.00 | 0.57 | 
Cc1c(C2(C(=O)N[C@@H]3CCc4cc(C#N)cnc43)CC2)c(=O)[nH]c2ccc(F)cc12 (single isomer, unassigned) [compound 2503] | 100.00 | 100.00 | 100.00 |  |  |  | 
Cc1c([C@@H](C)C(=O)N[C@@H](C)c2ccc(F)cc2F)c(=O)[nH]c2ccnc(OC(F)(F)F)c12 (single isomer, unassigned) [compound 347] |  |  |  | 0.35 | 0.94 | 20.36 | 
Cc1c(CC(=O)N[C@@H](CO)c2ccc(C#N)cc2F)c(=O)[nH]c2ccnc(C(F)(F)F)c12 (single isomer, unassigned) [compound 225] |  |  |  | 0.03 | 0.08 | 2.46 | 
